This note sets out measurements from article PMC7917093, “Multiomics-based dissection of citrus flavonoid metabolism using a Citrus reticulata × Poncirus trifoliata population” (Horticulture Research, 2021).

For experiment [1], the system named is T1, CitF3H (C. reticulata allele).
T1 construct: gene F3H
In words: LC-MS product assay, Michaelis-Menten fit. Type of experiment: biochemical, Citrus reticulata. Particulars: 0-1000 μM naringenin; 2-oxoglutarate 10 mM, FeSO4 0.25 mM, ascorbate 10 mM; Tris-HCl pH 8.5; 35 °C.

For experiment [2], the system named is T2, CitF3H (P. trifoliata allele).
T2 construct: gene F3H; natural allele with five amino acid differences and one indel versus C. reticulata
In words: LC-MS product assay, Michaelis-Menten fit. Type of experiment: biochemical, Citrus trifoliata. Particulars: 0-1000 μM naringenin; 2-oxoglutarate 10 mM, FeSO4 0.25 mM, ascorbate 10 mM; Tris-HCl pH 8.5; 35 °C.

The structures appear in SMILES notation.

Regarding `O=C1C[C@@H](c2ccc(O)cc2)Oc2cc(O)cc(O)c21` [naringenin], the Michaelis constant (Km) in experiment [1] was determined as 121 µM; in experiment [2], 7.61 µM.
